The compounds below were run against EGFR (UniProt P00533).
Chain of EGFR (P00533 whole entry, looked up): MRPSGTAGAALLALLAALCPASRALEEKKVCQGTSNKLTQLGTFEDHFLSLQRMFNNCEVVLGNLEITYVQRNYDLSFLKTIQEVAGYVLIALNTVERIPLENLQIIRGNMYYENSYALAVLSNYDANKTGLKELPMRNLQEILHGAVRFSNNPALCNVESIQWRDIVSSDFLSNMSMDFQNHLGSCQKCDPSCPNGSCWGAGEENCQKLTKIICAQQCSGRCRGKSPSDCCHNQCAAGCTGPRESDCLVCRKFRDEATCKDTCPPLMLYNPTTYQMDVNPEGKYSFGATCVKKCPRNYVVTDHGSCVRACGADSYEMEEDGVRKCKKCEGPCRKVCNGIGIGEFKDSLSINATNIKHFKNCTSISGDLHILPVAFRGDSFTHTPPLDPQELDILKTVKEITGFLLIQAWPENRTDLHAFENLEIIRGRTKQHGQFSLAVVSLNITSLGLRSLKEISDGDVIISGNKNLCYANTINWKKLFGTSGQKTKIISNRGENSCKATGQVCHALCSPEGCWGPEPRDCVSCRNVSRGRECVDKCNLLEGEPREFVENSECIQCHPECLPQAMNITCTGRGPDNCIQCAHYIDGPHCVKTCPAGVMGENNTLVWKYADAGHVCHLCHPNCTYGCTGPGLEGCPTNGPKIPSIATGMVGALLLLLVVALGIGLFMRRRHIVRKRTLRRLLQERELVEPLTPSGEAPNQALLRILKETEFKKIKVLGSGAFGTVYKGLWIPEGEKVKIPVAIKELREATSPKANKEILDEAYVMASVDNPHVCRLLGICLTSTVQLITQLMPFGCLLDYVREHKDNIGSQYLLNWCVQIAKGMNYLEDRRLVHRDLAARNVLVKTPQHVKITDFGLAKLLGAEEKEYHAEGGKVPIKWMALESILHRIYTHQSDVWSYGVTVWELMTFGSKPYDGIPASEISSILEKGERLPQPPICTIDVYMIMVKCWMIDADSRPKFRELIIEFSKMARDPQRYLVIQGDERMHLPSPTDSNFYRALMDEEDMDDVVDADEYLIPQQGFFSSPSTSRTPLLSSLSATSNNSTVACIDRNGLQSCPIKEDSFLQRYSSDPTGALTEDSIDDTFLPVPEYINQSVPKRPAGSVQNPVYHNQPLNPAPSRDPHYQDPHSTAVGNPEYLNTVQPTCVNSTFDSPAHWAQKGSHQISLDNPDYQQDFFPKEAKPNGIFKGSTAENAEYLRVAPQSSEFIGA

Compound	IC50 [µM]
Nc1ncnc2nn3ccccc3c12	> 10
O=C(Nc1cccc(C(F)(F)F)c1)Nc1ncnc2nn3ccccc3c12	> 10
O=C(Nc1ccc(C(F)(F)F)cc1)Nc1ncnc2nn3ccccc3c12	> 10
c1ccc(Cc2nc3ccc(Nc4ncnc5nn6ccccc6c45)cc3[nH]2)cc1	1 to 10
O=C(Nc1ccc(Br)cc1)Nc1ncnc2nn3ccccc3c12	> 10
N#Cc1cccc(NC(=O)Nc2ncnc3nn4ccccc4c23)c1	> 10
Clc1cc(Nc2ncnc3nn4ccccc4c23)ccc1OCc1ccccc1	< 0.1
O=C(Nc1ccc(F)cc1)Nc1ncnc2nn3ccccc3c12	> 10
c1ccc2c(CNNc3ncnc4nn5ccccc5c34)c[nH]c2c1	1 to 10
O=C(Nc1cccc([N+](=O)[O-])c1)Nc1ncnc2nn3ccccc3c12	> 10
